Experiment [1] concerns the target T1, human glucagon receptor (Homo sapiens (Human), UniProt P47871). As to the kind of experiment: Human Glucagon SPA Assay. Particulars: membrane from chem-1 cells stably transfected with the human glucagon receptor; 125 pM [125I]Glucagon-Cex; Ki by Cheng-Prusoff equation; read-out: Binding Ki. The method, then:
The Glucagon SPA assay is used to determine the ability of test compounds to block the binding of glucagon-cex to the glucagon receptor. Test compounds are re-suspended and serially diluted in 100% DMSO. 1 ul of test compound at the desired concentrations is spotted into the appropriate wells of 96 well low binding white clear bottom plate (Corning). 1 ul of DMSO is spotted into total binding wells. 1 ul of a known glucagon antagonist at a concentration of 20 uM is added to non specific binding wells. […] All assay ingredients with the exception of test compounds are re-suspended in the following buffer; 50 mM Hepes pH 7.4; 5 mM MgCl2; 1 mM CaCl; 5% glycerol and 0.2% BSA. Following a 6-10 hr incubation at room temperature the amount of hot ligand bound to the cell membranes is determined by reading the plates on a Wallac Trilux radioactive emission detector. Data is analyzed using Pfizer's Data analysis program. IC50 values are then determined from the generated sigmoidal dose response curves. Ki values are calculated using Cheng-Prusoff equation.

The target in experiment [2] is T1, human glucagon receptor. As to the kind of experiment: Glucagon cAMP Assay. Particulars: CHOK1 cells stably transfected with the human glucagon receptor; 100 pM glucagon challenge; Kb from IC50 by modified Cheng-Prusoff equation. The format is cell-based. The method, then:
The Cisbio cAMP detection assay is used to determine the ability of punitive glucagon antagonist to block glucagon induced cAMP production. Potential glucagon antagonists are re-suspended and diluted in 100% DMSO. Prior to use in the Glucagon cAMP assay 100×DMSO compound stocks are diluted 20× with DMEM-F12 media (Invitogen) containing either 0.1% or 4% BSA. 2 uls of 5× compound stocks are spotted into the appropriate wells of low binding white solid bottom 384 well plates (Corning). 2 uls of 5% DMSO or known glucagon antagonist are added to each plate to define the assay window. CHOK1 cells stably transfected with the human glucagon receptor are removed from culture flasks with cell dissociation buffer. Cell pellets are re-suspended, at a concentration of 8.3e^5 cells/ml in DMEM-F12 with or without 4% BSA and 200 uM IBMX. 6 uls of cell suspensions are added to the assay plates. Plates are incubated for 20 min at room temperature prior to the addition of a 100 pM challenge dose of glucagon. On a separate plate glucagon dose response curves are run to determine the EC50 of glucagon. After a 30 min room temperature incubation the reaction is terminated by the addition of lysis buffer containing the cAMP detection reagents. Plates are incubated for an additional 60 min at room temperature prior to being read on the Perkin Elmer fluorescent plate reader. Raw is converted to nM of cAMP produced based on a cAMP standard curve. Converted data is then analyzed using the Pfizer data analysis program. IC50 values are determined from the generated sigmoidal dose response curves. Kb values are the calculated using a modified Cheng-Prusoff equation.

Each structure is given as a SMILES string. Structures can show the parent of a compound that is named as a salt.

T1 sequence (P47871 26-477): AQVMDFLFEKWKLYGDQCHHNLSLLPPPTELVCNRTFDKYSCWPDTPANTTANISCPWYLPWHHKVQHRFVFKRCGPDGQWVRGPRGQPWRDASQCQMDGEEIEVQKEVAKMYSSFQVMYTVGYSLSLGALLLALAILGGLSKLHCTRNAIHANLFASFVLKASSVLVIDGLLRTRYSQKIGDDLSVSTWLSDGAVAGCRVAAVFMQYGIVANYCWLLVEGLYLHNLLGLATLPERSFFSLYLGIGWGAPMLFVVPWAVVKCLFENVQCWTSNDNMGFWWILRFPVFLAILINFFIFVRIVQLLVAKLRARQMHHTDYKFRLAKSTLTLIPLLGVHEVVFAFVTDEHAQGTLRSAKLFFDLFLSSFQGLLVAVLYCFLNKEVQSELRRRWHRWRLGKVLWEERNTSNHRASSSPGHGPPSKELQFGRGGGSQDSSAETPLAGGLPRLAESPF

Take `CC(C)CC(Nc1ccc2ccc(C(F)(F)F)cc2n1)c1ccc(C(=O)NCCC(=O)O)cc1` (racemic) [Example 15, (+/−)3-(4-(3-methyl-1-(7-(trifluoromethyl)quinolin-2-ylamino)butyl)benzamido)propanoic acid]: in experiment [1], the Ki (commonly the equilibrium dissociation constant of an inhibitor or competing ligand from its target) is 479 nM. In experiment [2], this compound had a Kb of 1100 nM.
In the same order, the values of `CCC[C@@H](Nc1nc2ccccc2cc1C)c1ccc(C(=O)NCCC(=O)O)cc1` [Example 1, (+)-3-(4-(1-((3-Methylquinolin-2-yl)amino)butyl)benzamido)propanoic acid] are 173 nM and 110 nM.
On the same counts, the results for `Cc1cc2ccccc2nc1NC(CC(C)C)c1ccc(C(=O)NCCC(=O)O)cc1` (single isomer, unassigned; isomer 1) [Example 30, 3-(4-(3-methyl-1-((3-methylquinolin-2-yl)amino)butyl)benzamido)propanoic acid, Isomer 1] are 76 nM and 69 nM.
In the same order, the values of `Cc1cc2cc(F)ccc2nc1NC(c1ccc(C(=O)NCCC(=O)O)cc1)C1CC(C)(C)C1` (racemic) [Example 20, (+/−)-3-{4-[(3,3-dimethyl-cyclobutyl)-(6-fluoro-3-methyl-quinolin-2-ylamino)-methyl]-benzoylamino}-propionic acid] are 39 nM and 64 nM.
In the case of `CCC[C@H](Nc1nc2ccccc2cc1C)c1ccc(C(=O)NCCC(=O)O)cc1` [Example 2, (−)-3-(4-(1-((3-Methylquinolin-2-yl)amino)butyl)benzamido)propanoic acid], the Ki in experiment [1] amounted to 280 nM. Moreover, the Kb in experiment [2] came to 520 nM.
In experiment [2], `CC1(C)CC(C(Nc2cnc3ccccc3c2)c2ccc(C(=O)NCCC(=O)O)cc2)C1` (stereo not drawn) [Example 24, 3-(4-((3,3-dimethylcyclobutyl)(quinolin-3-ylamino)methyl)benzamido)propanoic acid] registered a Kb of 140 nM.
`COc1cccc2ccc(NC(CC(C)C)c3ccc(C(=O)NCCC(=O)O)cc3)nc12` (racemic) [Example 6, (+/−)-3-{4-[1-(8-methoxy-quinolin-2-ylamino)-3-methyl-butyl]-benzoylamino}-propionic acid]: the Ki in experiment [1] was 1860 nM. In experiment [2], this compound displayed a Kb of 620 nM.
In experiment [2], `Cc1cc2ccccc2nc1NC(c1ccc(C(=O)NCCC(=O)O)cc1)C1CC(C)(C)C1` (single isomer, unassigned; isomer 2) [Example 33, 3-{4-[(3,3-dimethyl-cyclobutyl)-(3-methyl-quinolin-2-ylamino)-methyl]-benzoylamino}-propionic acid, isomer 2] registered a Kb of 1820 nM.
Regarding `CC1(C)CC(C(Nc2cnc3ccc(F)cc3c2)c2ccc(C(=O)NCCC(=O)O)cc2)C1` (racemic) [Example 23, (+/−)3-(4-((3,3-dimethylcyclobutyl)(6-fluoroquinolin-3-ylamino)methyl)benzamido)propanoic acid], the Ki in experiment [1] was 50 nM. In experiment [2], this compound came in with a Kb of 63 nM.
On the same counts, the results for `O=C(O)CCNC(=O)c1ccc(C(CCC(F)(F)F)Nc2cnc3ccccc3c2)cc1` (racemic) [Example 29, (+/−)-3-(4-(4,4,4-trifluoro-1-(quinolin-3-ylamino)butyl)benzamido)propanoic acid] are 930 nM and 930 nM.
On the same counts, the results for `Cc1ccc2ncc(NC(CC(C)C)c3ccc(C(=O)NCCC(=O)O)cc3)cc2c1` (stereo not drawn) [Example 27, N-(4-{3-methyl-1-[(6-methylquinolin-3-yl)amino]butyl}benzoyl)-beta-alanine] are 160 nM and 250 nM.
In the same order, the values of `Cc1c(NC(CC(C)C)c2ccc(C(=O)NCCC(=O)O)cc2)cnc2ccccc12` (stereo not drawn) [Example 18, (+\−)-3-(4-(3-methyl-1-(4-methylquinolin-3-ylamino)butyl)benzamido)propanoic acid] are 109 nM and 100 nM.
In the case of `CC1(C)CC(C(Nc2cnc3cc(F)ccc3c2)c2ccc(C(=O)NCCC(=O)O)cc2)C1` (racemic) [Example 22, (+/−)3-(4-((3,3-dimethylcyclobutyl)(7-fluoroquinolin-3-ylamino)methyl)benzamido)propanoic acid], the Ki in experiment [1] turned out to be 25 nM. The same compound returned a Kb in experiment [2] of 47 nM.
With `CC(C)CC(Nc1ccc2cc(C(F)(F)F)ccc2n1)c1ccc(C(=O)NCCC(=O)O)cc1` (racemic) [Example 16, (+/−)3-(4-(3-methyl-1-(6-(trifluoromethyl)quinolin-2-ylamino)butyl)benzamido)propanoic acid], in experiment [1], the Ki came out at 91 nM. This compound also registered a Kb in experiment [2] of 800 nM.
On the same counts, the results for `CC(C)CC(Nc1ccc2ccccc2n1)c1ccc(C(=O)NCCC(=O)O)cc1` (racemic) [Example 5, (+/−)-3-{4-[3-methyl-1-(quinolin-2-ylamino)-butyl]-benzoylamino}-propionic acid] are 452 nM and 380 nM.
On the same counts, the results for `CC(C)CC(Nc1cc2ccccc2cn1)c1ccc(C(=O)NCCC(=O)O)cc1` (racemic) [Example 9, (+/−)-3-{4-[1-(isoquinolin-3-ylamino)-3-methyl-butyl]-benzoylamino}-propionic acid trifluoroacetate] are 531 nM and 450 nM.
On the same counts, the results for `CC(C)CC(Nc1ncc2ccc(F)cc2n1)c1ccc(C(=O)NCCC(=O)O)cc1` (racemic) [Example 4, (+/−)-3-{4-[1-(7-fluoro-quinazolin-2-ylamino)-3-methyl-butyl]-benzoylamino}-propionic acid] are 7360 nM and 5100 nM.
In the case of `CC(C)CC(Nc1cnc2ccccc2c1)c1ccc(C(=O)NCCC(=O)O)cc1` (racemic) [Example 3, (+/−)3-{4-[3-methyl-1-(quinolin-3-ylamino)-butyl]-benzoylamino}-propionic acid], the Ki in experiment [1] was 240 nM. In experiment [2], this compound had a Kb of 270 nM.
As for `Cc1cc2cc(F)ccc2nc1NC(c1ccc(C(=O)NCCC(=O)O)cc1)C1CC(C)(C)C1` (single isomer, unassigned; isomer 1) [Example 34, 3-{4-[(3,3-dimethyl-cyclobutyl)-(6-fluoro-3-methyl-quinolin-2-ylamino)-methyl]-benzoylamino}-propionic acid, isomer 1], the Kb in experiment [2] was 1180 nM.
As to `Cc1cc2cc(F)ccc2nc1NC(c1ccc(C(=O)NCCC(=O)O)cc1)C1CC(C)(C)C1` (single isomer, unassigned; isomer 2) [Example 35, 3-{4-[(3,3-dimethyl-cyclobutyl)-(6-fluoro-3-methyl-quinolin-2-ylamino)-methyl]-benzoylamino}-propionic acid, isomer 2], in experiment [1], the Ki came to 14 nM. The compound further registered a Kb in experiment [2] of 33 nM.
`CC(C)CC(Nc1ncc2ccccc2n1)c1ccc(C(=O)NCCC(=O)O)cc1` (racemic) [Example 14, (+/−)-3-{4-[3-methyl-1-(quinazolin-2-ylamino)-butyl]-benzoylamino}-propionic acid] had a Kb in experiment [2] of 3100 nM.
On the same count and under the same terms, the result for `CC(C)CC(Nc1cnc2ccccc2n1)c1ccc(C(=O)NCCC(=O)O)cc1` (racemic) [Example 7, (+/−)-3-{4-[3-methyl-1-(quinoxalin-2-ylamino)-butyl]-benzoylamino}-propionic acid] reads 1000 nM.

For the origin of these results see patent US8927577B2, “Quinolinyl glucagon receptor modulators” (Pfizer Inc., priority 2011, dated 2015).
